Key:
Format in all cases: in vivo, human
[1] = system: patient suffering from sore throat caused by β-hemolytic streptococci; experiment: Spray treatment of a patient with sore throat (Example 1)
Protocol: Glucosamine or one or more of its derivatives was added in the appropriate amount to one of the following formulations. The compositions thus obtained were tested as described in the Examples. All percentages are by weight (w/w) unless otherwise indicated. A patient suffering from sore throat caused by β-hemolytic streptococci was treated with a water solution (formulation 1) of N-acetyl-glucosamine (8% w/w). The solution was sprayed into the mouth during 10 seconds in order to treat the infected area. Pain relief occurred already 20 seconds after application and lasted for at least 1,5 hour. 12 hours later the same patient was treated with spray containing glucosamine HCl (9% w/w and 20% glycerol and 10% alcohol in water). Pain relief occurred again very quickly, 36 seconds after, application and lasted for at least 2 hours.

[2] = system: patient with a tendinitis due to the practice of bowling sport; experiment: Topical treatment of tendinitis due to bowling (Example 6); details: 6% (w/w) in composition 3
Protocol: Glucosamine or one or more of its derivatives was added in the appropriate amount to one of the following formulations. The compositions thus obtained were tested as described in the Examples. All percentages are by weight (w/w) unless otherwise indicated.
A patient with a tendinitis due to the practice of bowling sport was treated 2 days after the onset of pain with composition 3 containing 6% (w/w) N-acetyl D-glucosamine. Pain relief occurred 25 seconds later.

[3] = system: patient with allergy for cats; experiment: Topical treatment of itching from cat allergy (Example 7); details: 5% (w/w) in composition 3
Protocol: Glucosamine or one or more of its derivatives was added in the appropriate amount to one of the following formulations. The compositions thus obtained were tested as described in the Examples. All percentages are by weight (w/w) unless otherwise indicated. A patient with allergy for cats (person) was confronted with a stroked cat (2 years old) in a closed room (6 m×4 m×3 m) during 10 minutes. 8 minutes later itching started all over the forehead and progressed after 15 minutes to the nose (external×internal). The patient was treated on the left side of the forehead with composition 3 and on the right side of the forehead with composition 3 containing 5% (w/w) glucosamine HCl. Itching completely disappeared after 45 seconds on the right side while there was still itching on the left side. The nose was also treated inside and outside with the active cream. Itching decreased drastically already after 50 seconds.

[4] = system: patient suffering from arthritis urica; experiment: Topical treatment of arthritis urica (Example 9); details: 9% (w/w) in composition 2; right foot, 4 successive treatments with an interval of 10 minutes; person
Protocol: Glucosamine or one or more of its derivatives was added in the appropriate amount to one of the following formulations. The compositions thus obtained were tested as described in the Examples. All percentages are by weight (w/w) unless otherwise indicated. A patient suffering from arthritis urica, and not taking any medication, was treated with composition 2 containing 9% (w/w) glucosamine HCl all over the affected right foot by 4 successive treatments with an interval of 10 minutes.

[5] = system: child suffering from diaper allergy; experiment: Topical treatment of diaper allergy (Example 5); details: 5% (w/w) in composition 2; applications for 1 week, 3 times a day; male, 8 months
Protocol: Glucosamine or one or more of its derivatives was added in the appropriate amount to one of the following formulations. The compositions thus obtained were tested as described in the Examples. All percentages are by weight (w/w) unless otherwise indicated. […]

[6] = system: patient suffering from eczema (atopical) on the arm-bends; experiment: Topical treatment of atopical eczema (Example 10); details: 8% (w/w) in composition 3; left arm; person
Protocol: Glucosamine or one or more of its derivatives was added in the appropriate amount to one of the following formulations. The compositions thus obtained were tested as described in the Examples. All percentages are by weight (w/w) unless otherwise indicated. A patient suffering from eczema (atopical) (person) on the arm-bends was treated with composition 3 containing 8% (w/w) glucosamine HCl on the left arm and composition 3 on the right arm. Itching decreased drastically after 15 seconds and lasted during 2 hours only on the left arm. From the above it follows that the therapeutical compositions of the invention can be used to alleviate itching and pain which result from a variety of causes. The relief is obtained very quickly and lasts for a considerable period of time.

[7] = system: patient suffering from pain in the knee caused by a light collision; experiment: Topical treatment of knee pain after a collision (Example 4); details: 10% (w/w) in formulation 3
Protocol: Glucosamine or one or more of its derivatives was added in the appropriate amount to one of the following formulations. The compositions thus obtained were tested as described in the Examples. All percentages are by weight (w/w) unless otherwise indicated. A patient suffering from pain in the knee caused by a light collision during a car accident was treated with formulation 3 containing 10% (w/w) glucosamine sulfate. Pain relief occurred after 50 seconds and lasted during 3 hours.

[8] = system: patient suffering from herpes simplex type I infection around the nose showing extensive fissures; experiment: Topical treatment of herpes simplex type I lesions around the nose (Example 3); details: 3% (w/w) in formulation 3
Protocol: Glucosamine or one or more of its derivatives was added in the appropriate amount to one of the following formulations. The compositions thus obtained were tested as described in the Examples. All percentages are by weight (w/w) unless otherwise indicated. A patient suffering from herpes simplex type I infection around the nose showing extensive fissures was treated with formulation 3 containing 3% glucosamine sulfate (w/w). Already after 30 seconds pain and itching relief occurred and lasted during 3 hours.

[9] = system: patient suffering from tendinitis caused by practicing tennis; experiment: Topical cream treatment of tendinitis caused by tennis (Example 2); details: 5% (w/w) in formulation 2 cream, applied on the skin during 2 minutes; person
Protocol: Glucosamine or one or more of its derivatives was added in the appropriate amount to one of the following formulations. The compositions thus obtained were tested as described in the Examples. All percentages are by weight (w/w) unless otherwise indicated. A patient suffering from tendinitis caused by practicing tennis was treated with formulation 2 containing glucosamine sulphate 5% (w/w). The cream was normally applied on the skin during 2 minutes to allow the penetration. Pain relief occurred already after 50 seconds and lasted for at least 2 hours. After 12 hours the same patient was treated with formulation 2 without glucosamine. There was no pain relief after similar application.

[10] = 8% w/w in water (formulation 1), sprayed into the mouth during 10 seconds, person
[11] = spray 9% w/w with 20% glycerol and 10% alcohol in water, same patient 12 hours later

For `CC(=O)N[C@H]1C(O)O[C@H](CO)[C@@H](O)[C@@H]1O` (stereo partly drawn) [N-acetyl-glucosamine, N-acetyl D-glucosamine], the “duration of pain relief” value [1, 10] was “at least 1,5 hour”, the “time to pain relief after application” value [1, 10] was 20 s and the “time to pain relief” value ([2]; 2 days after the onset of pain, person) was 25 s. For the same compound, the “pain after repeated treatment” value ([2]; after 5 successive treatments every 2 hours) was “pain was completely reduced”.

`Cl.N[C@H]1C(O)O[C@H](CO)[C@@H](O)[C@@H]1O` (stereo partly drawn) [glucosamine HCl, D-glucosamine hydrochloride] was tested, and the “time until itching decreased drastically” value ([3]; nose treated inside and outside) was 50 s, the “time until itching completely disappeared” value ([3]; right side of the forehead, person) was 45 s and the “duration of pain relief” value [4] was 4 h. For the same compound, the pain relief [4] was “Gradually strong pain relief occurred”, the “duration of pain relief” value [1, 11] was “at least 2 hours” and the “time to pain relief after application” value [1, 11] was 36 s. The “relief of itching and pains” value [5] was “always immediate relief of itching and pains”, the “duration of itching decrease” value [6] was 2 h and the “time until itching decreased drastically” value [6] was 15 s.

`N[C@H]1C(O)O[C@H](CO)[C@@H](O)[C@@H]1O.O=S(=O)(O)O` (stereo partly drawn) [glucosamine sulfate, D-glucosamine sulfate] was tested, and the “pain after repeated treatment” value ([7]; after 3 new successive treatments every 4 hours) was “the pain was completely gone”, the “duration of pain relief” value ([7]; person) was 3 h and the “time to pain relief” value ([7]; person) was 50 s. For the same compound, the closure of fissures ([8]; after 5 hours) was “most of the fissures were closed”, the “duration of pain and itching relief” value ([8]; person) was 3 h and the “time to pain and itching relief” value ([8]; person) was 30 s. For the same compound, the “duration of pain relief” value [9] was “at least 2 hours” and the “time to pain relief” value [9] was 50 s.

From patent publication US20010053771A1, “USE OF GLUCOSAMINE AND CLUCOSAMINE DERIVATIVES FOR QUICK ALLEVIATION OF ITCHING OR LOCALIZED PAIN” (priority 1997, published 2001)
